Measured values taken from doi:10.1101/2024.12.20.629780v2 (bioRxiv, 2024).
Ends that are not written are not given here.

system: PMA-differentiated human monocytes (THP-1); experiment: MTT cytotoxicity assay; assay type: cell-based; settings: Ala-scan

| Compound | Cytotoxicity in PMA-differentiated THP-1 cells relative to Turingcin-46 |
| --- | --- |
| FRWWLYKRALAATTIKIKRAK [R20A-Turingcin-46] | reduced cytotoxicity |
| FRWALYKRALAATTIKIKRRK [W4A-Turingcin-46] | reduced cytotoxicity |
| FRWWLYKRALAATTIKIKRRA [K21A-Turingcin-46] | reduced cytotoxicity |
| FRWWAYKRALAATTIKIKRRK [L5A-Turingcin-46] | reduced cytotoxicity |

system: not listed separately; experiment: Solubility in autoclaved deionized water; assay type: physicochemical; settings: not given

| Compound | Solubility in autoclaved deionized water |
| --- | --- |
| RRLNSKINLYLRIIIALINK [Turingcin-20] | Soluble |
| KKVWYIKVKLALALIKNI [Turingcin-3] | Soluble |
| SRKYRQLAKYIWRNLANKNRLIIKA [Turingcin-15] | Soluble |
| FRWWLYKRALAATTIKIKRRK [Turingcin-46] | Soluble |
| KILIRKILTIIERKLLRSNLKS [Turingcin-12] | Soluble |
| RLIKAILNRVWKAWAIQKK [Turingcin-2] | Soluble |
| KKRVYRQKIRLIKKAIFFKKR [Turingcin-18] | Soluble |
| RILRKVWTAWLREAALTIKVKR [Turingcin-9] | Soluble |
| ARWWLYKRALAATTIKIKRRK [F1A-Turingcin-46] | Soluble |
| FRWWLYKRALAATTAKIKRRK [I15A-Turingcin-46] | Soluble |
| RILRKWSNWWWNNWLIWK [Turingcin-28] | Soluble |
| FRWWLYKRALAATTIKAKRRK [I17A-Turingcin-46] | Soluble |
| KIWKIKILRINKKTSSIIA [Turingcin-14] | Soluble |
| WAVKSSRIIYTLLRKLKTWFNIKAK [Turingcin-8] | Soluble |
| RIINIILNRNLKKIILAAAIRNAIRW [Turingcin-22] | Soluble |
| KMWKLRIKLTI [Turingcin-13] | Soluble |
| KRRAARIKQLRFIQQSLREERIIQKLIK [Turingcin-6] | Soluble |
| QRRVLRFKLNTKIARLINLNI [Turingcin-27] | Soluble |
| KLRSSKKIFQIAAKFNKLFRRK [Turingcin-26] | Soluble |
| RVWKTLRIKVYFARRKQR [Turingcin-25] | Soluble |
| RWWYTSIIKKKLNKIIA [Turingcin-11] | Soluble |
| LIWRRKIFRIKLRI [Turingcin-17] | Soluble |
| KRIKILRKYKWNQQYKKKL [Turingcin-16] | Soluble |
| VMRRFFRLLRKIKL [Turingcin-23] | Soluble |
| KQIKQRSIRIKIFKKIL [Turingcin-24] | Soluble |

Results, then the compound that gave them:

| Solubility in autoclaved deionized water | Compound |
| --- | --- |
| Soluble | FRWWLYKRALAATTIKIARRK [K18A-Turingcin-46] |
| Soluble | FRWWLYKRALAATTIKIKRAK [R20A-Turingcin-46] |
| Soluble | FRAWLYKRALAATTIKIKRRK [W3A-Turingcin-46] |
| Soluble | FRWWLYKRALAATTIAIKRRK [K16A-Turingcin-46] |
| Soluble | RRWVHKILLIIIKILA [Turingcin-1] |
| Soluble | RLKSILLLIVTKINIRLKIA [Turingcin-7] |
| Soluble | FRWWLYKAALAATTIKIKRRK [R8A-Turingcin-46] |
| Insoluble | WYLIRVALIAFKKA [Turingcin-21] |
| Soluble | FRWWLYKRAAAATTIKIKRRK [L10A-Turingcin-46] |
| Insoluble | KILWYRIILIRFQKVW [Turingcin-5] |
| Soluble | FRWWLAKRALAATTIKIKRRK [Y6A-Turingcin-46] |
| Soluble | FRWALYKRALAATTIKIKRRK [W4A-Turingcin-46] |
| Insoluble | ILARLSSILKLI [Turingcin-4] |
| Soluble | FRWWLYKRALAATTIKIKRRA [K21A-Turingcin-46] |
| Soluble | FAWWLYKRALAATTIKIKRRK [R2A-Turingcin-46] |
| Soluble | FRWWLYKRALAATAIKIKRRK [T14A-Turingcin-46] |
| Soluble | FRWWLYKRALAAATIKIKRRK [T13A-Turingcin-46] |
| Soluble | KKIIIKFLIFNTKL [Turingcin-19] |
| Soluble | FRWWLYARALAATTIKIKRRK [K7A-Turingcin-46] |
| Soluble | RYIRLLVILKLA [Turingcin-10] |
| Soluble | FRWWAYKRALAATTIKIKRRK [L5A-Turingcin-46] |
| Soluble | FRWWLYKRALAATTIKIKARK [R19A-Turingcin-46] |

system: not listed separately; experiment: Resistance to proteolytic degradation in human serum; assay type: in vitro ADME; settings: 25% human serum in water

| Compound | remaining at 1 h, 7 mg mL-1 |
| --- | --- |
| FRWWLYKRALAATTIKIKRRK [Turingcin-46] | ~50% |

system: S. aureus ATCC 12600; experiment: Peritonitis/sepsis mouse model; assay type: in vivo, CD-1 mice; settings: at the tested dose

| Compound | Body weight change, peritonitis/sepsis model |
| --- | --- |
| FRWWLYKRALAATTIKIKRRK [Turingcin-46] | no significant changes in body weight |

same assay, conditions: peritoneal lavage, log10 CFU, n = 9 per group

| Compound | Slope of intracellular versus extracellular bacterial loads (linear regression) |
| --- | --- |
| CNC(C)C1CCC(N)C(OC2C(N)CC(N)C(OC3OCC(C)(O)C(NC)C3O)C2O)O1 (stereo not shown) [gentamicin, reference compound] | 1.37 |

system: S. aureus ATCC 12600; experiment: Skin abscess infection mouse model; assay type: in vivo, CD-1 mice; settings: general indicator of potential toxicity

| Compound | Body weight change, skin abscess model |
| --- | --- |
| FRWWLYKRALAATTIKIKRRK [Turingcin-46] | no significant changes in body weight |
